Measurements from patent US7420001B2 (Wyeth, priority 2003, dated 2008).
Like-named read-outs stand apart in the source and are kept apart here.

Columns and labels:
[1] = target: T1, Aggrecanase-1 (Homo sapiens, UniProt O75173); test: Aggrecanase-1 FRET assay; type: biochemical; conditions: for IC50: rAgg1, WAAG-3R substrate, read-out: AGG-1 IC50
T1 sequence (O75173 213-837): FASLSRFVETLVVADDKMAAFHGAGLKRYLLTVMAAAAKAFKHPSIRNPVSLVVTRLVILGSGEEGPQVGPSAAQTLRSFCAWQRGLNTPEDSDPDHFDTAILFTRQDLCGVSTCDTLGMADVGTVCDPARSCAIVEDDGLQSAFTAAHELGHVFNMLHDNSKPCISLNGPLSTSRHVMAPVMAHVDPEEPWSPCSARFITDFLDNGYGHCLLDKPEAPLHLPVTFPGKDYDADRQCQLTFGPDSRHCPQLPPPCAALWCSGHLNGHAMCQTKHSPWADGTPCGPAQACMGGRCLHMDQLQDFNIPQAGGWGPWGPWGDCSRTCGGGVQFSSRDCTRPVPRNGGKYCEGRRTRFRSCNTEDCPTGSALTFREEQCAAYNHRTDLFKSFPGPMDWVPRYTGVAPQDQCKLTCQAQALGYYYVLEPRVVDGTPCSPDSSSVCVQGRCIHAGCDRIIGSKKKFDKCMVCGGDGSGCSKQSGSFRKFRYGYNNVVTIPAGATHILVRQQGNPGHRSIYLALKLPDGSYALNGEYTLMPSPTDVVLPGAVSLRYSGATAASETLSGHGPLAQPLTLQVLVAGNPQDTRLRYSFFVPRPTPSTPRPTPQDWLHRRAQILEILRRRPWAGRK
Method: h. Aggrecanase-1 FRET Assay:
The following protocol was used: • Fluorimeter was started and temperature set to 30° C., about 30 min before setting up the assay. The following reagents are used: • Buffer: 50 mM HEPES, pH 7.5, 100 mM NaCl, 5 mM CaCl2, 0.1% CHAPS, 5% glycerol. • rAgg1: 5 μg/ml (final concentration in the assay): • Substrate: WAAG-3R (MWT=1645.8, Anaspec, stored at 4° C.). Make a stock at 2 mg/ml in 100% DMSO. Measure the absorbance at 354 nm (ε=18172 M^−1 cm^−1) to determine the exact concentration. Dilute to 62.5 μM in buffer. Store unused 100% DMSO stock at −80° C. Final concentration of substrate in the assay is 25 μM. […] Make up inhibitors at 10× starting concentration in 100% DMSO. Perform serial dilutions (in duplicate) across the nunc plate in 100% DMSO; • Dilution plates: Nunc, polypropylene low binding (Nalgene) • Assay plate: Fluoronunc (Nalgene) • Fluorimeter: GeminiXS (Molecular Devices).; • The assay is performed as follows: The plates are set up so that the final column (12) is used for controls. Total reaction volume is 100 μl. Each compound is assayed in duplicate, so 4 compounds are screened per plate. • 1) Add buffer to the entire 96-well plate (30 ρl/well). • 2) Dilute rAgg1 to 25 μg/ml buffer just prior to addition on the plate. Add 20 μl/well to all wells. Mix 6 times. • 3) Add 10 μl/well of 10× inhibitors from the working plate, except column 12. Mix 6 times. […] Mix 6 times.
The reaction is monitored for 30-40 min at 30° C. λex: 340 nm and λ em: 420 nm). The fluorescence is linear during this time and the slope of the line (Vmax/sec) represents the initial reaction rate, ν. The maximal rate of cleavage of substrate is determined in the absence of inhibitor. The percent inhibition of activity in the presence of inhibitor is calculated as follows:
[formula] The IC50 was obtained by fitting the initial rate, ν, or % inhibition at each concentration of inhibitor to the following equation in Excel. y=(a−d)/(1+C/IC50)^n)+d This model describes a sigmoidal curve with an adjustable baseline, […]. y is the % inhibition or initial rate of reaction, C is the concentration of inhibitor under test. a is the limiting response as C approaches zero. […] The sign of n is positive when the response increases with increasing dose and is negative when the response decreases with increasing dose (inhibition).

[2] = target: T2, MMP-13 (Homo sapiens, UniProt P45452); test: In-vitro fluorescence assay of MMP-13 activity; type: biochemical
T2 construct: made in house
Method: A continuous assay was used in which the substrate is a synthetic peptide containing a fluorescent group (7-methoxycoumarin; Mca) which is quenched by energy transfer to a 2,4-dinitrophenyl group. […] The substrate used was Mca-PQGL-(3-[2,4-dinitrophenyl]-L-2,3-diaminopropionyl)-AR-OH (denoted as Wammp-5, custom synthesized by AnaSpec, Inc.). The assay buffer consisted of 50 mM Hepes (pH 7.4), 100 mM NaCl, 5 mM CaCl2, and 0.005% Brij-35. Each well of black polystyrene 96-well plates contained a 200 μL reaction mixture consisting of assay buffer, purified MMP (final concentration of 0.5 nM, prepared by diluting with the assay buffer), and varied concentrations of inhibitor (prepared by serially diluting a given inhibitor in DMSO in 96-well polypropylene plate). […] The enzymatic reactions were initiated by adding the substrate to a final concentration of 20 μM, and mixing 10 times with a pipette. The final DMSO concentration in the assay was 6.0%.
(§1) Plots of the inhibitor concentration vs. the percent inhibition were fit to the following equation: y=(a−d)/[1+(x/c)^b]+d, a general sigmoidal curve with Hill slope, a to d. x is the inhibitor concentration under test. y is the percent inhibition. a is the limiting response as x approaches zero. As x increases without bound, y tends toward its limit d. c is the inflection point (IC50) for the curve. That is, y is halfway between the lower and upper asymptotes when x=c. b is the slope factor or Hill coefficient.

[3] = target: T3, MMP-1 (Homo sapiens, UniProt P03956)
T3 sequence (P03956 100-269 limits assumed): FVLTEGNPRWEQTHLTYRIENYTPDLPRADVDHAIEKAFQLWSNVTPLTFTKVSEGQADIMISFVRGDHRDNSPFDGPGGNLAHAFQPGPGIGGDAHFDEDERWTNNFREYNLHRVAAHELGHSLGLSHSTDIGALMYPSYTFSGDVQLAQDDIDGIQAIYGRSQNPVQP

[4] = target: T4, MMP-12 (Homo sapiens, UniProt P39900); test: In vitro fluorescence assay of MMP-12 activity; type: biochemical; conditions: recombinant human MMP-12
T4 construct: made in house
T4 sequence (P39900 106-280 limits assumed): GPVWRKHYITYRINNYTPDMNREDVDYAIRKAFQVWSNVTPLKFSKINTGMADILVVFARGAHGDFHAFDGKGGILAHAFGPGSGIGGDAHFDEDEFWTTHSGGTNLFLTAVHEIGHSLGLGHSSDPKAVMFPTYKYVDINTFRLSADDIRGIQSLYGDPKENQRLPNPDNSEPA
Method: A continuous, assay was used in which the substrate is a synthetic peptide containing a fluorescent group (7-methoxycoumarin; Mca) which is quenched by energy transfer to a 2,4-dinitrophenyl group. […] The concentration of the substrate stock was spectrophotometrically determined using the extinction coefficient at 410 nm of 7500 M^−1cm^−1. The assay buffer (pH 7.4) consisted of 50 mM Hepes, 100 mM NaCl, 5 mM CaCl2, and 0.005% Brij-35. […] The plates were then incubated at room temperature for 30 minutes. The enzymatic reactions were initiated by adding substrate to a final concentration of 20 μM and they were mixed by pipetting up and down. The final DMSO concentration in the assay was 10% and the final, total assay volume was 200 μl.

[5] = target: T5, MMP-2 (Homo sapiens, UniProt P08253); test: In-vitro fluorescence assay of MMP-2 activity; type: biochemical
T5 construct: purchased Oncogene Research Products (Calbiochem) PF023
T5 sequence (P08253 110-660): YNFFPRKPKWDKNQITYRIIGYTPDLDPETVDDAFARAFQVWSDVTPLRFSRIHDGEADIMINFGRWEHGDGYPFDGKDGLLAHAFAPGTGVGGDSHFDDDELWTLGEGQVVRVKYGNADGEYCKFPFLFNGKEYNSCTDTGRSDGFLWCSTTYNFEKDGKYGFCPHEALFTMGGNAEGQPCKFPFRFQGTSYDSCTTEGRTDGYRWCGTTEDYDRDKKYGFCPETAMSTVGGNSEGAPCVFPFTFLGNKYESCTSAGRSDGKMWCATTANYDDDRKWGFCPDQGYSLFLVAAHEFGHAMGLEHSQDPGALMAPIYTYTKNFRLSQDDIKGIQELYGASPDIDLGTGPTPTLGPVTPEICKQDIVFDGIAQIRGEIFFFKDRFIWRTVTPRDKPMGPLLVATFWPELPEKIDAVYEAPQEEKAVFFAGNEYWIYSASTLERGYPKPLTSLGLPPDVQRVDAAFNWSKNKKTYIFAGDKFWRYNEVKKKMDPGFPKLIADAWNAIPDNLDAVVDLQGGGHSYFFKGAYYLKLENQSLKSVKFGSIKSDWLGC

[6] = target: T6, MMP-14 (Homo sapiens, UniProt P50281); test: In-vitro fluorescence assay of MMP-14 activity; type: biochemical
T6 construct: 20 kDa; purchased Chemicon International, Inc. CC 1041
Method: A continuous assay was used in which the substrate is a synthetic peptide containing a fluorescent group (7-methoxycoumarin; Mca) which is quenched by energy transfer to a 2,4-dinitrophenyl group. […] The substrate used was Mca-PQGL-(3-[2,4-dinitrophenyl]-L-2,3-diaminopropionyl)-AR-OH (denoted as Wammp-5, custom synthesized by AnaSpec, Inc.). The assay buffer consisted of 50 mM Hepes (pH 7.4), 100 mM NaCl, 5 mM CaCl2, and 0.005% Brij-35. […] The enzymatic reactions were initiated by adding the substrate to a final concentration of 20 μM, and mixing 10 times with a pipette. The final DMSO concentration in the assay was 6.0%.
as §1

[7] = recombinant human catalytic domain of MMP-13, read-out: MMP-13 IC50
[8] = recombinant human MMP-2, read-out: MMP-2 IC50
[9] = recombinant human catalytic domain of MMP-14
[10] = MMP-13 IC50, recombinant human catalytic domain of MMP-13

CC(C)C(NS(=O)(=O)c1ccc(-c2ccc(NS(=O)(=O)c3cccs3)cc2)cc1)C(=O)O (stereo in doubt) [Example 171, (R)-3-Methyl-2-[4′-(thiophene-2-sulfonylamino)-biphenyl-4-sulfonylamino]-butyric acid]
inhibition at 150 µM ([1]; read-out: AGG-1 % inhibition at a concentration): 60% | IC50 [2, 7]: 1090 nM

Cc1c(C(=O)Nc2ccc(-c3ccc(S(=O)(=O)N[C@H](C(=O)O)C(C)C)cc3)cc2)oc2cccc(C#N)c12 [Example 20, L-2-{4′-[(4-Cyano-3-methyl-benzofuran-2-carbonyl)-amino]-biphenyl-4-sulfonylamino}-3-methyl-butyric acid]
IC50 [3]: 24000 nM | IC50 [4]: 33 nM | IC50 [2, 7]: 3.7 nM | IC50 [5, 8]: 581 nM | IC50 [6]: 5450 nM

Cc1c(C(=O)Nc2ccc(-c3ccc(S(=O)(=O)N[C@H](C(=O)O)C(C)C)cc3)cc2)oc2cccc(C(N)=O)c12 [Example 46, L-2-{4′-[(4-Carbamoyl-3-methyl-benzofuran-2-carbonyl)-amino]-biphenyl-4-sulfonylamino}-3-methyl-butyric acid]
IC50 [3]: 20200 nM | IC50 [4]: 187 nM | IC50 [2, 7]: 14 nM | IC50 [5, 8]: 1000 nM | IC50 [6, 9]: 24800 nM

CC(C)[C@@H](NS(=O)(=O)c1ccc(-c2ccc(N(C)C(=O)c3cc4ccccc4o3)cc2)cc1)C(=O)O [Example 75, D-2-{4′-[(Benzofuran-2-carbonyl)-methyl-amino]-biphenyl-4-sulfonylamino}-3-methyl-butyric acid]
IC50 [1]: 42000 nM

CCOc1cccc2oc(C(=O)Nc3ccc(-c4ccc(S(=O)(=O)N[C@H](C(=O)O)C(C)C)cc4)cc3)c(C)c12 [Example 106, (S)-2-{4′-[(4-ethoxy-3-methyl-benzofuran-2-carbonyl)-amino]-biphenyl-4-sulfonylamino}-3-methyl-butyric acid]
IC50 [4]: 121 nM | IC50 [2, 7]: 7.4 nM | IC50 [5, 8]: 3590 nM

Cc1c(C(=O)Nc2ccc(-c3ccc(S(=O)(=O)N[C@H](C(=O)O)C(C)C)cc3)cc2)oc2cccc(-c3cccnc3)c12 [Example 111, (S)-3-methyl-2-{4′-[(3-methyl-4-pyridin-3-yl-benzofuran-2-carbonyl)-amino]-biphenyl-4-sulfonylamino}-butyric acid]
IC50 [3]: 22000 nM | IC50 [4]: 84 nM | IC50 [2, 7]: 4 nM | IC50 [5, 8]: 1340 nM | IC50 [6, 9]: 7310 nM

COc1c(Cl)ccc2oc(C(=O)Nc3ccc(-c4ccc(S(=O)(=O)N[C@H](C(=O)O)C(C)C)cc4)cc3)c(C)c12 [Example 116, (S)-2-{4′-[(5-Chloro-4-methoxy-3-methyl-benzofuran-2-carbonyl)-amino]-biphenyl-4-sulfonylamino}-3-methyl-butyric acid]
IC50 ([3]; read-out: MMP-1 IC50, recombinant human catalytic domain of MMP-1): 34100 nM | IC50 [4]: 50 nM | IC50 [2, 7]: 1.9 nM | IC50 [5, 8]: 1490 nM | IC50 [6, 9]: 12400 nM

Cc1ccc2oc(C(=O)Nc3ccc(-c4ccc(S(=O)(=O)N[C@H](C(=O)O)C(C)C)cc4)cc3)nc2c1 [Example 129, (S)-3-Methyl-2-{4′-[(5-methyl-benzooxazole-2-carbonyl)-amino]-biphenyl-4-sulfonylamino}-butyric acid]
IC50 [4]: 1.9 nM | IC50 [2, 7]: 0.8 nM | IC50 [5, 8]: 116 nM

CC(C)[C@@H](NS(=O)(=O)c1ccc(-c2ccc(OC(=O)c3ccco3)cc2)cc1)C(=O)O [Example 144, N-{[4′-(2-Furoyloxy)-1,1′-biphenyl-4-yl]sulfonyl}-D-valine]
IC50 [1]: 11600 nM

CC(C)[C@@H](NS(=O)(=O)c1ccc(-c2ccc(OC(=O)c3ccoc3)cc2)cc1)C(=O)O [Example 145, N-{[4′-(3-Furoyloxy)-1,1′-biphenyl-4-yl]sulfonyl}-D-valine]
IC50 [1]: 8600 nM

COc1c(Br)ccc2oc(COc3ccc(-c4ccc(S(=O)(=O)N[C@H](C(=O)O)C(C)C)cc4)cc3)c(C)c12 [Example 148, N-({4′-[(5-Bromo-4-methoxy-3-methyl-1-benzofuran-2-yl)methoxy]-1,1′-biphenyl-4-yl}sulfonyl)-L-valine]
IC50 [1]: 400 nM | IC50 [2, 10]: 1.4 nM | IC50 [5]: 136 nM

CC(C)[C@H](NS(=O)(=O)c1ccc(-c2ccc(NC(=O)c3nc4ccccc4s3)cc2)cc1)C(=O)O [Example 151, L-2-{4′-[(Benzothiazole-2-carbonyl)-amino]-biphenyl-4-sulfonylamino}-3-methyl-butyric acid]
IC50 [3]: 70000 nM | IC50 [4]: 11 nM | IC50 [2, 7]: 0.4 nM | IC50 [6, 9]: 35000 nM

Cc1c(C(=O)Nc2ccc(-c3ccc(S(=O)(=O)N[C@H](C(=O)O)C(C)C)cc3)cc2)oc2cccc(Oc3ccccc3)c12 [Example 155, L-3-Methyl-2-{4′-[(3-methyl-4-phenoxy-benzofuran-2-carbonyl)-amino]-biphenyl-4-sulfonylamino}-butyric acid]
IC50 [3]: 25000 nM | IC50 [4]: 508 nM | IC50 [2, 10]: 19 nM | IC50 [5, 8]: 5000 nM | IC50 [6, 9]: 8000 nM

CC(C)[C@H](NS(=O)(=O)c1ccc(-c2ccc(NC(=O)c3cc4c(-c5ccccc5)nn(C)c4s3)cc2)cc1)C(=O)O [Example 167, (S)-3-Methyl-2-{4′-[(1-methyl-3-phenyl-1H-thieno[2,3-c]pyrazole-5-carbonyl)-amino]-biphenyl-4-sulfonylamino}-butyric acid]
IC50 [3]: 90000 nM | IC50 [4]: 97 nM | IC50 [2, 7]: 12 nM | IC50 [5, 8]: 9300 nM | IC50 [6, 9]: 11000 nM

CC(C)[C@@H](NS(=O)(=O)c1ccc(-c2ccc(NC(=O)c3cccs3)cc2)cc1)C(=O)O [Example 173, (R)-3-Methyl-2-{4′-[(thiophene-2-carbonyl)-amino]-biphenyl-4-sulfonylamino}-butyric acid]
IC50 [1]: 25400 nM | IC50 [2, 7]: 115 nM
